Read-outs that look alike come from different tables or passages of the source. One block for each compound: values may come before it.
What was measured:
Test in all cases: biochemical
Design in all cases: Thermal shift (DSF, SYPRO Orange) Tm shift of recombinant kinase domains at 10 uM compound
[1] = target: T1, BIKE (Homo sapiens, UniProt Q9NSY1)
T1 construct: gene BMP2K

[2] = target: CAMK1D (Homo sapiens, UniProt Q8IU85)
[3] = target: T2, CHK2 (Homo sapiens, UniProt O96017)
T2 construct: gene CHEK2

[4] = target: CSNK1E (Homo sapiens, UniProt P49674)
[5] = target: EphA2 (Homo sapiens, UniProt P29317)
[6] = target: FGFR2 (Homo sapiens, UniProt P21802)
[7] = target: T3, JNK2 (Homo sapiens, UniProt P45984)
T3 construct: gene MAPK9

[8] = target: MAP2K1 (Homo sapiens, UniProt Q02750)
[9] = target: T4, MAP2K7 (Homo sapiens, UniProt O14733)
T4 sequence (O14733 1-419): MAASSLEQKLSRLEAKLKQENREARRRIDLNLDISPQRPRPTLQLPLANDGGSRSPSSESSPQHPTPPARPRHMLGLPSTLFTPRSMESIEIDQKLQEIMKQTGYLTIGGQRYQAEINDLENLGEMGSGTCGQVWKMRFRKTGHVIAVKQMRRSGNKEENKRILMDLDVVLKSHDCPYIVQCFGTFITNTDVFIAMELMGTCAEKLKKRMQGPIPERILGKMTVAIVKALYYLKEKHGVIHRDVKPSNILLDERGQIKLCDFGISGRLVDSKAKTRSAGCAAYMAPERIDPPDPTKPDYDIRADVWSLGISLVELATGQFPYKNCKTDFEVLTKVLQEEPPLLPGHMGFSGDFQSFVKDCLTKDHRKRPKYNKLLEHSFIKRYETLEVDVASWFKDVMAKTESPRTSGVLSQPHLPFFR

[10] = target: T5, MAPK15 (Homo sapiens, UniProt Q8TD08)
T5 sequence (Q8TD08 1-544): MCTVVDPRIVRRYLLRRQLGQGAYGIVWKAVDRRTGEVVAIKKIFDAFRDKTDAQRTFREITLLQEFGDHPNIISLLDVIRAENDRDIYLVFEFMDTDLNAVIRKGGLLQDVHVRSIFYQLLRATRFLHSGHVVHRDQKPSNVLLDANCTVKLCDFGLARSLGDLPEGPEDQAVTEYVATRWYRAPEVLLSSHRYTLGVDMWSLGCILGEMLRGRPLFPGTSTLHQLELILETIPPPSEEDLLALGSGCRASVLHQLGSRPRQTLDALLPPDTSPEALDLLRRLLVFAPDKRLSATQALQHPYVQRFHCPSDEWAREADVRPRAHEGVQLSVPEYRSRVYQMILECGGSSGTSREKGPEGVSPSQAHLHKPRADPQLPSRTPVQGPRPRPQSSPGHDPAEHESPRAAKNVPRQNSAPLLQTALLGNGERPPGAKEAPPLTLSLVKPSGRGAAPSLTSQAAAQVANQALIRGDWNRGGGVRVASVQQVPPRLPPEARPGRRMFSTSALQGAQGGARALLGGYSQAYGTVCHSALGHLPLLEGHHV

[11] = target: T6, NEK2 (Homo sapiens, UniProt P51955)
T6 sequence (P51955 1-445): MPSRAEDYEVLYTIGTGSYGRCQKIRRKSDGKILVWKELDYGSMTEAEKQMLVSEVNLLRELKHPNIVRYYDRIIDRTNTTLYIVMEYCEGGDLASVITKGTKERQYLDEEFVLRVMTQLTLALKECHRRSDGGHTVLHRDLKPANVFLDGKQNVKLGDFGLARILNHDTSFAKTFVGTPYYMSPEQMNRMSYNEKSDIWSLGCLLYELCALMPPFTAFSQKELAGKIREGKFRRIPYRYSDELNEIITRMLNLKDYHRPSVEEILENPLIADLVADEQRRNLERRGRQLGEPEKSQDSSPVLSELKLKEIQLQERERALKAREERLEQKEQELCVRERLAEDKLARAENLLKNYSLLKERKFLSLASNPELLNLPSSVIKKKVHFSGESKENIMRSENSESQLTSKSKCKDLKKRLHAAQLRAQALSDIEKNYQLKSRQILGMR

[12] = target: SLK (Homo sapiens, UniProt Q9H2G2)
[13] = target: SRPK1 (Homo sapiens, UniProt Q96SB4)
[14] = target: T7, p38a (Homo sapiens, UniProt Q16539)
T7 construct: gene MAPK14
T7 sequence (Q16539 whole entry): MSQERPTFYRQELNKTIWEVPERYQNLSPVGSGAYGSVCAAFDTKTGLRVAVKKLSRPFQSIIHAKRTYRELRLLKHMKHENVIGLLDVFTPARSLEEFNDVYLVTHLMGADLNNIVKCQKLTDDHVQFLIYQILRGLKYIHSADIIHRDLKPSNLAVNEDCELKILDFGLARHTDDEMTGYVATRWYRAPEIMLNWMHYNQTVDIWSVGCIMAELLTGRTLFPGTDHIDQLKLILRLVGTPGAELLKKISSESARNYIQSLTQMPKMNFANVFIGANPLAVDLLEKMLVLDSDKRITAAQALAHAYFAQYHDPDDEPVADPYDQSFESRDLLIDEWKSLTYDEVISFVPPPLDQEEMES

Sequence of SLK (Q9H2G2 whole entry): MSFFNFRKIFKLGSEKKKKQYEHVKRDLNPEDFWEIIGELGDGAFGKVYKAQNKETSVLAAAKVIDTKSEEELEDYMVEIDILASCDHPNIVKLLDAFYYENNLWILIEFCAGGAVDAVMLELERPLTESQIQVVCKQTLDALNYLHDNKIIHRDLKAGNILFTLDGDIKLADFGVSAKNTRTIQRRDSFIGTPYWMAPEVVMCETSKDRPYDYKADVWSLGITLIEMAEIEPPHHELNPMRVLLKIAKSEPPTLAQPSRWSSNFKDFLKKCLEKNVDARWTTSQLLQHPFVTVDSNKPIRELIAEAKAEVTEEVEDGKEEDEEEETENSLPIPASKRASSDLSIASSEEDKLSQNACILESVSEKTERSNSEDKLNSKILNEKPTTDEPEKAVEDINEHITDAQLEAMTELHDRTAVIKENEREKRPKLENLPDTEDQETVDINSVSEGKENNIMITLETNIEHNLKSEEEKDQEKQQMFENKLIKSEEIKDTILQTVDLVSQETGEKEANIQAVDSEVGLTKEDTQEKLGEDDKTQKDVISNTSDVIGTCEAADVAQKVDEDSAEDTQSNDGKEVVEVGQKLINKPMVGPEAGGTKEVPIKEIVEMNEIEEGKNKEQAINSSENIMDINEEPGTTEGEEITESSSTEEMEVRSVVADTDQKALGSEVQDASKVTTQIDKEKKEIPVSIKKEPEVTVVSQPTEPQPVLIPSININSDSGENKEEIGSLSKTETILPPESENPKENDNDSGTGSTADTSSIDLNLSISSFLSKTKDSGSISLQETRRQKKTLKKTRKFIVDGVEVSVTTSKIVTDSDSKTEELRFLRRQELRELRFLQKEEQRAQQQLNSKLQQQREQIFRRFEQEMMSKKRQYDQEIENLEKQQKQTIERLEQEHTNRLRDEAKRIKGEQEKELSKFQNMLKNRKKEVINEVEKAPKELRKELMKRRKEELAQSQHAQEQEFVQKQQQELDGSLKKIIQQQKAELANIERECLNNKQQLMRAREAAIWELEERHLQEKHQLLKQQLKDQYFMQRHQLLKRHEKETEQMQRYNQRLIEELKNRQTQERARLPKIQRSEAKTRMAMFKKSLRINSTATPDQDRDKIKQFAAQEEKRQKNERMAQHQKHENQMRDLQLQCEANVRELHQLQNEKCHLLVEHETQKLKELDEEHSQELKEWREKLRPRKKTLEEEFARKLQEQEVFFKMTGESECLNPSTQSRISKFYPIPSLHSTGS
Sequence of SRPK1 (Q96SB4 whole entry): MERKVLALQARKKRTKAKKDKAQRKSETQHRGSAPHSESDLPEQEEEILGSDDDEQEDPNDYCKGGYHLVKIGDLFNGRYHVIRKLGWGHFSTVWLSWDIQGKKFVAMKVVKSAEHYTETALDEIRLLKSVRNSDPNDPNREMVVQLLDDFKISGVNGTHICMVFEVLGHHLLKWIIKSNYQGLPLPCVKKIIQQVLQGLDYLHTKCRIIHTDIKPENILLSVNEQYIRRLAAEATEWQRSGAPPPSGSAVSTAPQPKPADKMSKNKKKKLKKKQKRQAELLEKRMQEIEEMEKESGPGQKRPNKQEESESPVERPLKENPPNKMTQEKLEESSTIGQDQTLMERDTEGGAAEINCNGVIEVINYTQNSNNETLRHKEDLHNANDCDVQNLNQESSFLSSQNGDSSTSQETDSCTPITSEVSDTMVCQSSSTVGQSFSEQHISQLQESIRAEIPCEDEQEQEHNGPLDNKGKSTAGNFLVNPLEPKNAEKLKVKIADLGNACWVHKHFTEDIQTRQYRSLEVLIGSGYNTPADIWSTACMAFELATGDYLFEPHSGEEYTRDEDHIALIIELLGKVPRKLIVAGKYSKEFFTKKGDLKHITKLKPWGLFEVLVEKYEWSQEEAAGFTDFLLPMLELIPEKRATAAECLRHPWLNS
T2 sequence (O96017 whole entry): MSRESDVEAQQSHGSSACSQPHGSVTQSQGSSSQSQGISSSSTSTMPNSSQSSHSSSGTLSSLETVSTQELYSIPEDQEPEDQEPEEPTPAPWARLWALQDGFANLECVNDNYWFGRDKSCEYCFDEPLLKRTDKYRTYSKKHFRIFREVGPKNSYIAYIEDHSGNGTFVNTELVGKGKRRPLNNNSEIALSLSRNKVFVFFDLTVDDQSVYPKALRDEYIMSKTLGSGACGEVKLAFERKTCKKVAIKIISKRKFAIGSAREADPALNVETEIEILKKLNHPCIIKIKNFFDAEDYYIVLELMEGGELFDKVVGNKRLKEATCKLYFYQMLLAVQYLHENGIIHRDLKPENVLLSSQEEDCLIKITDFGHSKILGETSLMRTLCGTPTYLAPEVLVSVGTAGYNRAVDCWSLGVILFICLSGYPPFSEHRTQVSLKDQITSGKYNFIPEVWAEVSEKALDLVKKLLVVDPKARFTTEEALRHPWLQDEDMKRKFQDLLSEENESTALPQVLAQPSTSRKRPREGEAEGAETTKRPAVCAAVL
T1 sequence (Q9NSY1 whole entry): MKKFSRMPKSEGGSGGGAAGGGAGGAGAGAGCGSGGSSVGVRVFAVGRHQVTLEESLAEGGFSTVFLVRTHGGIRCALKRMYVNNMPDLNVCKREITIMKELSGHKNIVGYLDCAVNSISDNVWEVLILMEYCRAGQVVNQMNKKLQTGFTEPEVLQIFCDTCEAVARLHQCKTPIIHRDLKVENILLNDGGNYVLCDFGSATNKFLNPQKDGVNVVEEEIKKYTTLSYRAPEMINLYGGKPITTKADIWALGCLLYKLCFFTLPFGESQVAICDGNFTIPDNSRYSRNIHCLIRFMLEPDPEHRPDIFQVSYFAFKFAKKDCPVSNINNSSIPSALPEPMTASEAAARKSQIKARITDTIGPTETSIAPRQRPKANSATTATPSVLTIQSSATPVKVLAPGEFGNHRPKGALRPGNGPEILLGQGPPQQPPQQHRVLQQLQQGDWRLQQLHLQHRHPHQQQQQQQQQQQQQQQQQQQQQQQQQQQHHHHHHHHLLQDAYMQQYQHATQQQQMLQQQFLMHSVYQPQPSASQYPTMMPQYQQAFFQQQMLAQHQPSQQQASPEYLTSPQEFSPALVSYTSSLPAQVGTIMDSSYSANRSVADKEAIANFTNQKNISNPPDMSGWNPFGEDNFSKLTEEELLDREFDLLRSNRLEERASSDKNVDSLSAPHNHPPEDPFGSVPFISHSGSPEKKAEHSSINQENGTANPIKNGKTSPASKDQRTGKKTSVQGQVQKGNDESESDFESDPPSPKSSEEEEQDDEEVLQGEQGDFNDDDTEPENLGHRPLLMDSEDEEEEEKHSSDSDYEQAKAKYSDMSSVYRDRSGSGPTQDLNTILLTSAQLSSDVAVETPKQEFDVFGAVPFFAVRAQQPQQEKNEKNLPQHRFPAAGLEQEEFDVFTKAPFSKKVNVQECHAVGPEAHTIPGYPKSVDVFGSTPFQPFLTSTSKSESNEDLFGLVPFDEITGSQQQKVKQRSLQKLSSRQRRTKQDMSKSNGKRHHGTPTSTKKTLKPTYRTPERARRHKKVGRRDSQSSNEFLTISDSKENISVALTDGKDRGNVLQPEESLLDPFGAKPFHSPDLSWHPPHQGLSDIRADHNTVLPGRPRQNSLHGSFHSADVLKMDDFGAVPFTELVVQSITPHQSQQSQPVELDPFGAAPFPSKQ
Sequence of EphA2 (P29317 whole entry): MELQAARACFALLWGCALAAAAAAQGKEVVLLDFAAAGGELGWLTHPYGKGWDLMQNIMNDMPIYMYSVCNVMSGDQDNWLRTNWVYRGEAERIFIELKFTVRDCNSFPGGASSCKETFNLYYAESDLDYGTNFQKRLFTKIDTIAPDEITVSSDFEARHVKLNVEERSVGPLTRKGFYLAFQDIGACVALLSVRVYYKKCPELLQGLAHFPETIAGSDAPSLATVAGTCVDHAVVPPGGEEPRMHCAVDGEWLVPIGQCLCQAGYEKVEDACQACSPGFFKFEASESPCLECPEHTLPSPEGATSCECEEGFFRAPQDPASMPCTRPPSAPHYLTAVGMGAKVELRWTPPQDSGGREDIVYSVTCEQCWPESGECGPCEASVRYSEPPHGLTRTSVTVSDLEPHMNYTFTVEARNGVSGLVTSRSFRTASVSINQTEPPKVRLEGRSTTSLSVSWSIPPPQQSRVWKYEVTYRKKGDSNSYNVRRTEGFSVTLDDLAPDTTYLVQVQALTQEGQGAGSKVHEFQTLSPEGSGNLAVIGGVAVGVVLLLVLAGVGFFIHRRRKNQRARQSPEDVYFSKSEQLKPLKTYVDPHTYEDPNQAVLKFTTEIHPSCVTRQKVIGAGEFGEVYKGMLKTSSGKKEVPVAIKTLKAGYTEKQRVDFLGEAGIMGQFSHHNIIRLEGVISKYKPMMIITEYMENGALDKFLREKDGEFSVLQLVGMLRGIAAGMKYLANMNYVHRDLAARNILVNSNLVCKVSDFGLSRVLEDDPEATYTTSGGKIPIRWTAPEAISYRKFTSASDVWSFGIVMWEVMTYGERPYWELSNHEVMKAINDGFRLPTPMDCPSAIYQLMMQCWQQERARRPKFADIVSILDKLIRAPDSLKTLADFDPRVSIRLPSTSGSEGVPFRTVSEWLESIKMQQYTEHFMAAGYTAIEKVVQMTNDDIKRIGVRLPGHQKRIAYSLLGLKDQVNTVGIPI

ΔTm at 10 µM ([1]; read-out: 6c): 11 °C
ΔTm at 10 µM ([2]; read-out: 6c): 0 °C
ΔTm at 10 µM ([3]; read-out: 6c): 4 °C
ΔTm at 10 µM ([4]; read-out: 6c): 3 °C
ΔTm at 10 µM ([5]; read-out: 6c): 3 °C
ΔTm at 10 µM ([6]; read-out: 6c): 0 °C
ΔTm at 10 µM ([7]; read-out: 6c): 0 °C
ΔTm at 10 µM ([8]; read-out: 6c): 1 °C
ΔTm at 10 µM ([9]; read-out: 6c): 0 °C
ΔTm at 10 µM ([11]; read-out: 6c): -4 °C
ΔTm at 10 µM ([12]; read-out: 6c): 2 °C
ΔTm at 10 µM ([13]; read-out: 6c): 6 °C
ΔTm at 10 µM ([14]; read-out: 6c): -3 °C
Structure (SMILES): CC(C)Oc1ccc2ccn(-c3cncc(-c4ccc(C(=O)O)cc4)n3)c2c1 [6c]
ΔTm at 10 µM ([10]; read-out: 6c): 15 °C

ΔTm at 10 µM ([1]; read-out: 7c): 10 °C
ΔTm at 10 µM ([2]; read-out: 7c): 0 °C
ΔTm at 10 µM ([3]; read-out: 7c): 3 °C
ΔTm at 10 µM ([4]; read-out: 7c): 1 °C
ΔTm at 10 µM ([5]; read-out: 7c): 1 °C
ΔTm at 10 µM ([6]; read-out: 7c): 0 °C
ΔTm at 10 µM ([7]; read-out: 7c): 0 °C
ΔTm at 10 µM ([8]; read-out: 7c): 1 °C
ΔTm at 10 µM ([9]; read-out: 7c): -1 °C
ΔTm at 10 µM ([11]; read-out: 7c): -1 °C
ΔTm at 10 µM ([12]; read-out: 7c): 1 °C
ΔTm at 10 µM ([13]; read-out: 7c): 3 °C
ΔTm at 10 µM ([14]; read-out: 7c): -1 °C
Structure (SMILES): COc1ccc(OC(C)C)cc1Nc1cncc(-c2ccc(C(=O)O)cc2)n1 [7c]
ΔTm at 10 µM ([10]; read-out: 7c): 10 °C

ΔTm at 10 µM ([1]; read-out: 2): 13 °C
ΔTm at 10 µM ([2]; read-out: 2): 2 °C
ΔTm at 10 µM ([3]; read-out: 2): 6 °C
ΔTm at 10 µM ([4]; read-out: 2): 2 °C
ΔTm at 10 µM ([5]; read-out: 2): 1 °C
ΔTm at 10 µM ([6]; read-out: 2): 0 °C
ΔTm at 10 µM ([7]; read-out: 2): 1 °C
ΔTm at 10 µM ([8]; read-out: 2): 2 °C
ΔTm at 10 µM ([9]; read-out: 2): 0 °C
ΔTm at 10 µM ([11]; read-out: 2): -2 °C
ΔTm at 10 µM ([12]; read-out: 2): 3 °C
ΔTm at 10 µM ([13]; read-out: 2): 6 °C
ΔTm at 10 µM ([14]; read-out: 2): -1 °C
Structure (SMILES): CC(C)Nc1ccc2cnn(-c3cncc(-c4ccc(C(=O)O)cc4)n3)c2c1 [compound 2, 2]
ΔTm at 10 µM ([10]; read-out: 2): 12 °C

— paper doi:10.1101/2023.12.04.569845, “Identification of 4-(6-((2-methoxyphenyl)amino)pyrazin-2-yl)benzoic acids as CSNK2A inhibitors with antiviral activity and improved selectivity over PIM3” (bioRxiv, 2023)
